This note sets out measurements from PMC3445516 (PLoS ONE, 2012).

What all share (experiment): Ambit kinase profiling, competition binding
Test [1] concerns the target T1, CSNK1D (Homo sapiens, UniProt P48730).
T1 construct: purchased Ambit Biosciences (KINOMEscan)
How it is done: (§1) Also included in the kinase profile are four isoforms of PKC (δ, ε, η, θ) and eight isoforms of CAMKs (CAMKIα, δ, γ; CAMKIIα, β, δ, γ; CAMK4).
(§2) The global kinase profiling experiment was performed by Ambit Biosciences.

Test [2] addresses T2, DDR1 (Homo sapiens, UniProt Q08345).
T2 construct: purchased Ambit Biosciences (KINOMEscan)
How it is done: as §1, §2

The target of test [3] is T3, ERK4 (Homo sapiens, UniProt P31152).
T3 construct: purchased Ambit Biosciences (KINOMEscan)
T3 sequence (P31152 whole entry): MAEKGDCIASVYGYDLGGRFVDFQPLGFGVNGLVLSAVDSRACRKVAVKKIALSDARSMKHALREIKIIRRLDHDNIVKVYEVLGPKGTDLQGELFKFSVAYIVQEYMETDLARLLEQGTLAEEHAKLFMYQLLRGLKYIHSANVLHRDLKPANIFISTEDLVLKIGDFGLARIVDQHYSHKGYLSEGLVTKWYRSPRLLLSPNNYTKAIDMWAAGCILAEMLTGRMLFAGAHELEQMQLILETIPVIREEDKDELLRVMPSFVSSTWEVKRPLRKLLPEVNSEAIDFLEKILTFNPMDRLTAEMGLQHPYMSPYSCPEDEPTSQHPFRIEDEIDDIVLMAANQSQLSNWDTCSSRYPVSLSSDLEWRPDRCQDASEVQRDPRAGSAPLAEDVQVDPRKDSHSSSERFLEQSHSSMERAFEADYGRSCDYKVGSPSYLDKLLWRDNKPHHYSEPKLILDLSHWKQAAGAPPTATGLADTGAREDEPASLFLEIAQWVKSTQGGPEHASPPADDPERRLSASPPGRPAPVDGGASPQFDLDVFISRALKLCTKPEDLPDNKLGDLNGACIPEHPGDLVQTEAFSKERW
How it is done: as §1, §2

The target in test [4] is T4, MST3 (Homo sapiens, UniProt Q9Y6E0).
T4 construct: purchased Ambit Biosciences (KINOMEscan)
T4 sequence (Q9Y6E0 whole entry): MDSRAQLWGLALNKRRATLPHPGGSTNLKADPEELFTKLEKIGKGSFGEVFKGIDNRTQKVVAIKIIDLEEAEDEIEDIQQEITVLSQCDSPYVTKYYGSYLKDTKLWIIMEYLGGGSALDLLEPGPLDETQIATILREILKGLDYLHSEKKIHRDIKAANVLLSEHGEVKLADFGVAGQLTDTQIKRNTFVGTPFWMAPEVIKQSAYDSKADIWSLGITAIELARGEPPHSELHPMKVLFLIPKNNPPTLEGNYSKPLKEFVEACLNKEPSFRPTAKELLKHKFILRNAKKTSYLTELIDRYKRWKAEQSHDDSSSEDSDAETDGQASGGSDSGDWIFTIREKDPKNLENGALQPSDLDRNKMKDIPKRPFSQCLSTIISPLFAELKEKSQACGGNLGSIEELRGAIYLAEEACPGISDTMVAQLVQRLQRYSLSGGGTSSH
The conditions noted are these: for % Competition: 10 µM. How it is done: as §1, §2

Test [5] addresses T5, PLK4 (Homo sapiens, UniProt O00444).
T5 construct: purchased Ambit Biosciences (KINOMEscan)
T5 sequence (O00444 1-970): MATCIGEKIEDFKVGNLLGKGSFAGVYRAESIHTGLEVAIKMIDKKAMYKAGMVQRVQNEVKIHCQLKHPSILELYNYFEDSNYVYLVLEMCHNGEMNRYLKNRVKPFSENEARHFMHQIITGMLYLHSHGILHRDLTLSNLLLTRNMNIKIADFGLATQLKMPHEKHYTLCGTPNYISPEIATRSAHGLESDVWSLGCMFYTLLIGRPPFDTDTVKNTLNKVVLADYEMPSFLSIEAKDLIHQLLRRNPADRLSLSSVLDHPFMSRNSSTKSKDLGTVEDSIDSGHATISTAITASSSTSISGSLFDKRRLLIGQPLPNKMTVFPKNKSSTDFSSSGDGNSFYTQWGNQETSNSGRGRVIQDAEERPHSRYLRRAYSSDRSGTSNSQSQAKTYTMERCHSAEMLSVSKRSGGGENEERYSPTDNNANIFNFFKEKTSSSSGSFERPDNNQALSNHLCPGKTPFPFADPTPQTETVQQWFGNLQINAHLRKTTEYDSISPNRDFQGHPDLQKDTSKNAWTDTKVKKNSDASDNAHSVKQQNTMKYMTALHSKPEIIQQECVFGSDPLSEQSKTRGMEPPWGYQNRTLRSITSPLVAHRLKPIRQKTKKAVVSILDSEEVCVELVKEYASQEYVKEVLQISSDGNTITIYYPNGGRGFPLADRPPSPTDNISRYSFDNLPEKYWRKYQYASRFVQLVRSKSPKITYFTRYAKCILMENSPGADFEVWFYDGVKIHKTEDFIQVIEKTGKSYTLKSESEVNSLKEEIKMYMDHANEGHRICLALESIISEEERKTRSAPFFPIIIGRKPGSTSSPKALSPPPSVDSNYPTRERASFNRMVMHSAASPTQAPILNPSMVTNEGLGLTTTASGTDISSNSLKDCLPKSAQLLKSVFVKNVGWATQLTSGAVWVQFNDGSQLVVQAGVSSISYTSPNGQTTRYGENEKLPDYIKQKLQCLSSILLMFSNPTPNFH
How it is done:
as §1, §2

For test [6], the target named is T6, RAF1 (Homo sapiens, UniProt P04049).
T6 construct: purchased Ambit Biosciences (KINOMEscan)
T6 sequence (P04049 whole entry): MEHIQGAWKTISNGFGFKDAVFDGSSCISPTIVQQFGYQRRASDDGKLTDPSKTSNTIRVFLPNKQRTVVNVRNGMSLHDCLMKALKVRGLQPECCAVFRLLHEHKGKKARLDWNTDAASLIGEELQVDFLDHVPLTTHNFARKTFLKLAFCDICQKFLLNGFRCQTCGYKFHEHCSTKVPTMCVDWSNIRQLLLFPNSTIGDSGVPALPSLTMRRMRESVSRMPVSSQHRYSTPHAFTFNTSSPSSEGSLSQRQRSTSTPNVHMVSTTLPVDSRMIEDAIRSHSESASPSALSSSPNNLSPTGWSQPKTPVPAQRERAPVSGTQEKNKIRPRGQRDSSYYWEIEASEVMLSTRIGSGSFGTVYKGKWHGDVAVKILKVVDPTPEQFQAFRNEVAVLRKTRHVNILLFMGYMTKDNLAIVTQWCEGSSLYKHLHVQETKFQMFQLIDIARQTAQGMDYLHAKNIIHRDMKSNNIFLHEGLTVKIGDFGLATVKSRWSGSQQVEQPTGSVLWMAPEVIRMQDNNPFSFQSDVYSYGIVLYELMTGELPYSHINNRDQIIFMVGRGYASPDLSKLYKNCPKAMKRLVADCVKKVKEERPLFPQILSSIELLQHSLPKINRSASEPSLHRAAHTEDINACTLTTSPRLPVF
How it is done: as §1, §2

For test [7], the target named is T7, SNARK (Homo sapiens, UniProt Q9H093).
T7 construct: purchased Ambit Biosciences (KINOMEscan)
T7 sequence (Q9H093 1-628): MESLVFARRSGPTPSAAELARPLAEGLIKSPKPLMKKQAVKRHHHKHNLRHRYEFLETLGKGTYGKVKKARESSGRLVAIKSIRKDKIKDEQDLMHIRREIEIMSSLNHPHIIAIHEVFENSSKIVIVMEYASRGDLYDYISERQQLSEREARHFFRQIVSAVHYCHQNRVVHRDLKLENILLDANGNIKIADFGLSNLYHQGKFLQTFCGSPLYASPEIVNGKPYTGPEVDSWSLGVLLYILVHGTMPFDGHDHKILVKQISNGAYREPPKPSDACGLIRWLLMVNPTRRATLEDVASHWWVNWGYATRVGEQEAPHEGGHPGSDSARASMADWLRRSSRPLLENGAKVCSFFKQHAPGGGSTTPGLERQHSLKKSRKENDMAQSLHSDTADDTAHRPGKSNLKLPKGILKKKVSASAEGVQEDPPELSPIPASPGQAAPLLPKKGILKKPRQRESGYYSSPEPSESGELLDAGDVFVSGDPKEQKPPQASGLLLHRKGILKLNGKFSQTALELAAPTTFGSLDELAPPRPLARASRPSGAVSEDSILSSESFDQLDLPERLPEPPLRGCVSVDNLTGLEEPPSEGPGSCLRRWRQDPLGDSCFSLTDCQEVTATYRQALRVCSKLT
The conditions noted are these: for % Competition: 10 µM. How it is done: as §1, §2

Test [8] addresses T8, p38-gamma (Homo sapiens, UniProt P53778).
T8 construct: purchased Ambit Biosciences (KINOMEscan)
T8 sequence (P53778 1-367): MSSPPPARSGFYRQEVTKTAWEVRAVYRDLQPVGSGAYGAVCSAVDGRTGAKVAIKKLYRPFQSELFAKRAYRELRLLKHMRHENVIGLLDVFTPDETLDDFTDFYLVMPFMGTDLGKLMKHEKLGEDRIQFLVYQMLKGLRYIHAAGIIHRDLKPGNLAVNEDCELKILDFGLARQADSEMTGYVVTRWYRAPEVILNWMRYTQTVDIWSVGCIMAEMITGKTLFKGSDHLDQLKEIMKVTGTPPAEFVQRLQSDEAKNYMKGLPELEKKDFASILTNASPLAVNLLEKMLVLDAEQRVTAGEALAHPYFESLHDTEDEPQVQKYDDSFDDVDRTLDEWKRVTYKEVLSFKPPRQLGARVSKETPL
How it is done: as §1, §2

Like-named read-outs stand apart in the source and are kept apart here.

T2 sequence (Q08345 19-913): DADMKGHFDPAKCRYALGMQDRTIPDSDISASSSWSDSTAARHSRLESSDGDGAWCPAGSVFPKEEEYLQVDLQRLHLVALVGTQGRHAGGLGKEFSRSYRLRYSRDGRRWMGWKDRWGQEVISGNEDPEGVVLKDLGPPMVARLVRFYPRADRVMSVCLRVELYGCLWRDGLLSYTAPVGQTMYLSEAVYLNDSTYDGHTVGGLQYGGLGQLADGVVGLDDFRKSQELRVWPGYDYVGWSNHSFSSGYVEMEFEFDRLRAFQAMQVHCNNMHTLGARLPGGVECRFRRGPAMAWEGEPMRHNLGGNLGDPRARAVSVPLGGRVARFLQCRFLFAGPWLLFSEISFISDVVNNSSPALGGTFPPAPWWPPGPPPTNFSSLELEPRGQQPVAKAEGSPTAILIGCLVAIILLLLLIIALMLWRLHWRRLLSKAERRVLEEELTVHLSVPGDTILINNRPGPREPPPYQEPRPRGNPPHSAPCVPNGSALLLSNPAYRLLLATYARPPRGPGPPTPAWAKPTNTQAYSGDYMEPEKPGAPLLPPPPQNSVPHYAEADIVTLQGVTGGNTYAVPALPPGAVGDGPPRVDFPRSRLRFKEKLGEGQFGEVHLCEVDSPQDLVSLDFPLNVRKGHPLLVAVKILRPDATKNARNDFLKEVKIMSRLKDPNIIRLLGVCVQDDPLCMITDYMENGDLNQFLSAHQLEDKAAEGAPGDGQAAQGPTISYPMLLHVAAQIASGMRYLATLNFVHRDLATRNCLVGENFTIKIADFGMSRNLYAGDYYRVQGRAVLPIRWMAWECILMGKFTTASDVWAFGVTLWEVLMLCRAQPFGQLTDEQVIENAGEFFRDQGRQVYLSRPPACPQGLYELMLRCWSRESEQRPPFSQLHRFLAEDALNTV
T1 sequence (P48730 whole entry): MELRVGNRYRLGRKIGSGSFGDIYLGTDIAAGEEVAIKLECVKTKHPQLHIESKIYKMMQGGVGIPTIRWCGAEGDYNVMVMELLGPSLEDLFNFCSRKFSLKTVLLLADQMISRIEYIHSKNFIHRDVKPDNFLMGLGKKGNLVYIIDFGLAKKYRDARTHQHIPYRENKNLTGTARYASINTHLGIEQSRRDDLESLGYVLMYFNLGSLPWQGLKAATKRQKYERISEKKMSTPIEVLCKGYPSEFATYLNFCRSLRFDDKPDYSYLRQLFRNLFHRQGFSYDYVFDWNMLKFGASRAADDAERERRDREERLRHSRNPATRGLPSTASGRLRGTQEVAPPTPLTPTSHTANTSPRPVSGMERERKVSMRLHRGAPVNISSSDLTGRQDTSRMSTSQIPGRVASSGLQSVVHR

Take `Fc1ccc(-c2c(-c3ccncc3)[nH]c3nccnc23)cc1` [Compound 122]: the inhibition at 10 µM stood at 97% in test [1] (CSNK1D, 10 µM, read-out: % Competition); 100% in test [2] (DDR1, 10 µM, read-out: % Competition); 68% in test [3] (ERK4, 10 µM, read-out: % Competition); 98% in test [5] (PLK4, 10 µM, read-out: % Competition); 81% in test [6] (RAF1, 10 µM, read-out: % Competition); 90% in test [8] (10 µM, read-out: % Competition). Also, the “% Competition” value in test [4] is 68%; in test [7], 89%.
In the case of `CC(O)CNc1cc(-c2[nH]c3cccnc3c2-c2ccc(F)cc2)ccn1` (stereo not drawn) [Compound 140], the inhibition at 10 µM in test [1] (read-out: % Competition) was 96%; in test [2] (read-out: % Competition) it was 98%; in test [3] (read-out: % Competition), under 50%; in test [5] (read-out: % Competition), under 50%; in test [6] (read-out: % Competition), under 50%. Besides, the “% Competition” value in test [4], in test [7] and in test [8] (10 µM) was under 50% each time.
For the compound `Fc1ccc(-c2c(-c3ccncc3)[nH]c3nccnc23)cc1` [RO1155697-000-005], the inhibition at 10 µM in test [1] (CSNK1D, compound concentration 10 uM, read-out: Percent Competition) was determined as 97%; in test [2] (DDR1, compound concentration 10 uM, read-out: Percent Competition), 100%; in test [3] (ERK4, compound concentration 10 uM, read-out: Percent Competition), 68%; in test [5] (PLK4, compound concentration 10 uM, read-out: Percent Competition) it was 98%; in test [6] (RAF1, compound concentration 10 uM, read-out: Percent Competition) it was 81%; in test [8] (compound concentration 10 uM, read-out: Percent Competition), 90%. In addition, the “Percent Competition” value in test [4] (compound concentration 10 uM) stood at 68%; in test [7] (compound concentration 10 uM) it was 89%.
